Our source for the inhibition of growth values is ChEMBL document CHEMBL4043153, “Lead selection of antiparasitic compounds from a focused library of benzenesulfonyl derivatives of heterocycles” (Bioorg Med Chem Lett, 2017).

Common to all, as to type: functional
Assay [1] has as its system Trypanosoma brucei rhodesiense. As to the kind of experiment: Antiparasitic activity against Trypanosoma brucei rhodesiense STIB 900 trypomastigote bloodstream form assessed as growth inhibition at 0.8 ug/ml after 72 hrs by resazurin dye-based fluorometric analysis relative to control. To be noted: STIB 900, 72 h, read-out: GI. (In general: The colour change of resazurin is a common sign of viable cells or microbes.)

Assay [2] concerns Plasmodium falciparum. In words: Antiparasitic activity against intraerythrocytic form of chloroquine/pyrimethamine-resistant Plasmodium falciparum K1 infected in human RBC assessed as growth inhibition at 4.8 ug/ml preincubated for 48 hrs followed by [3H]-hypoxanthine addition measured after 24 hrs by liquid scintillation counting analysis relative to control. To be noted: read-out: GI.

Assay [3] concerns Trypanosoma brucei rhodesiense. As to the kind of experiment: Antiparasitic activity against Trypanosoma brucei rhodesiense STIB 900 trypomastigote bloodstream form assessed as growth inhibition at 4.8 ug/ml after 72 hrs by resazurin dye-based fluorometric analysis relative to control. The following applies: STIB 900, 72 h, read-out: GI.
The subject of assay [4] is Plasmodium falciparum. As to the kind of experiment: Antiparasitic activity against intraerythrocytic form of chloroquine/pyrimethamine-resistant Plasmodium falciparum K1 infected in human RBC assessed as growth inhibition at 0.8 ug/ml preincubated for 48 hrs followed by [3H]-hypoxanthine addition measured after 24 hrs by liquid scintillation counting analysis relative to control. To be noted: read-out: GI.

The subject of assay [5] is Leishmania donovani. As to the kind of experiment: Antiparasitic activity against Leishmania donovani MHOM-ET-67/L82 axenic amastigotes assessed as growth inhibition at 4.8 ug/ml after 72 hrs by resazurin dye-based fluorometric analysis relative to control. The following applies: MHOM-ET-67/L82, 72 h, read-out: GI.
Assay [6] deals with Leishmania donovani. As to the kind of experiment: Antiparasitic activity against Leishmania donovani MHOM-ET-67/L82 axenic amastigotes assessed as growth inhibition at 0.8 ug/ml after 72 hrs by resazurin dye-based fluorometric analysis relative to control. The following applies: MHOM-ET-67/L82, 72 h, read-out: GI.
The test system of assay [7] is Trypanosoma cruzi. As to the kind of experiment: Antiparasitic activity against Trypanosoma cruzi Tulahuen C4 intracellular amastigotes infected in rat L6 cells assessed as growth inhibition at 4.8 ug/ml after 96 hrs by CPRG/Nonidet reagent based photometric analysis relative to control. To be noted: Tulahuen C4, L6, 96 h, read-out: GI.
Assay [8] deals with Trypanosoma cruzi. As to the kind of experiment: Antiparasitic activity against Trypanosoma cruzi Tulahuen C4 intracellular amastigotes infected in rat L6 cells assessed as growth inhibition at 0.8 ug/ml after 96 hrs by CPRG/Nonidet reagent based photometric analysis relative to control. To be noted: Tulahuen C4, L6, 96 h, read-out: GI.

Molecules are shown by their SMILES.

On to `CC1Cc2ccccc2N1S(=O)(=O)c1cccc([N+](=O)[O-])c1` (configuration not stated), for which the inhibition of growth at 0.8 µg/mL stood at 7% in assay [1], 14.9% in the assay with Plasmodium falciparum [4], 26% in the assay with Leishmania donovani [6] and 2.5% with Trypanosoma cruzi [8]. Moreover, the inhibition of growth at 4.8 µg/mL came to 62.6% in the assay on Plasmodium falciparum [2], 12.6% in assay [3], 66.2% with Leishmania donovani [5] and 31.6% in the assay on Trypanosoma cruzi [7].

With `O=S(=O)(c1cccc(C(F)(F)F)c1)n1ccc2ccccc21`, the inhibition of growth at 0.8 µg/mL in assay [1] is 0%; in the assay on Plasmodium falciparum [4], 5%; in the assay on Leishmania donovani [6], 11.7%; in the assay with Trypanosoma cruzi [8] it was 0%. In addition, the inhibition of growth at 4.8 µg/mL came to 61.1% with Plasmodium falciparum [2], 0% in assay [3], 45.7% in the assay on Leishmania donovani [5] and 3.3% in the assay on Trypanosoma cruzi [7].

For the compound `Cc1cc(C)c(C)c(S(=O)(=O)n2nnc3ccccc32)c1C`, the inhibition of growth at 0.8 µg/mL stood at 0.7% in assay [1], 0% in the assay with Plasmodium falciparum [4], 28.4% in the assay on Leishmania donovani [6] and 0% with Trypanosoma cruzi [8]. Besides, the inhibition of growth at 4.8 µg/mL was 0.1% in the assay with Plasmodium falciparum [2], 4.7% in assay [3], 45.6% in the assay with Leishmania donovani [5] and 2.9% in the assay on Trypanosoma cruzi [7].

For the compound `O=S(=O)(c1ccc(Cl)cc1)N1CCc2ccccc21`, the inhibition of growth at 0.8 µg/mL in assay [1] turned out to be 0%; in the assay on Plasmodium falciparum [4], 3.7%; in the assay with Leishmania donovani [6], 6.9%; in the assay with Trypanosoma cruzi [8], 0%. Moreover, the inhibition of growth at 4.8 µg/mL in the assay on Plasmodium falciparum [2] worked out at 63.7%; in assay [3], 0%; in the assay on Leishmania donovani [5], 73.6%; with Trypanosoma cruzi [7], 1.5%.

`Cc1ccc(S(=O)(=O)N2c3ccccc3CC2C)cc1` (configuration not stated): the inhibition of growth at 0.8 µg/mL in assay [1] amounted to 3.5%; in the assay on Plasmodium falciparum [4] it was 7.7%; with Leishmania donovani [6] it was 9.4%; in the assay with Trypanosoma cruzi [8], 0%. Moreover, the inhibition of growth at 4.8 µg/mL is 53.1% with Plasmodium falciparum [2], 0% in assay [3], 5.3% in the assay with Leishmania donovani [5] and 93.4% in the assay with Trypanosoma cruzi [7].

On to `CC(=O)c1ccc(S(=O)(=O)n2nnc3ccccc32)cc1`, for which the inhibition of growth at 0.8 µg/mL is 2.8% in assay [1], 0% in the assay with Plasmodium falciparum [4], 17.3% in the assay on Leishmania donovani [6] and 0% in the assay on Trypanosoma cruzi [8]. Further, the inhibition of growth at 4.8 µg/mL came to 5.6% in the assay on Plasmodium falciparum [2], 4.9% in assay [3], 41.6% in the assay on Leishmania donovani [5] and 6.1% in the assay with Trypanosoma cruzi [7].

In the case of `CC1Cc2ccccc2N1S(=O)(=O)c1ccc(C(F)(F)F)cc1` (configuration not stated), the inhibition of growth at 0.8 µg/mL was found to be 0% in assay [1], 12.7% in the assay on Plasmodium falciparum [4], 17.9% with Leishmania donovani [6] and 0% with Trypanosoma cruzi [8]. In addition, the inhibition of growth at 4.8 µg/mL was found to be 91.4% in the assay on Plasmodium falciparum [2], 1.2% in assay [3], 86.2% in the assay with Leishmania donovani [5] and 54.6% in the assay on Trypanosoma cruzi [7].

In the case of `CC(=O)c1ccc(S(=O)(=O)N2CCc3ccccc3C2)cc1`, the inhibition of growth at 0.8 µg/mL is 0% in assay [1], 0.3% in the assay on Plasmodium falciparum [4], 20.1% with Leishmania donovani [6] and 0% in the assay on Trypanosoma cruzi [8]. In addition, the inhibition of growth at 4.8 µg/mL in the assay with Plasmodium falciparum [2] was determined as 9.7%; in assay [3], 0%; with Leishmania donovani [5] it was 46.1%; in the assay with Trypanosoma cruzi [7], 13.4%.

On to `CC(C)(C)c1ccc(S(=O)(=O)n2ccc3ccccc32)cc1`, for which the inhibition of growth at 0.8 µg/mL in assay [1] came out at 0%; in the assay on Plasmodium falciparum [4], 13.9%; with Leishmania donovani [6] it was 27.3%; with Trypanosoma cruzi [8], 0%. For the same compound, the inhibition of growth at 4.8 µg/mL with Plasmodium falciparum [2] stood at 92.3%; in assay [3], 0%; with Leishmania donovani [5], 92.2%; with Trypanosoma cruzi [7] it was 0%.

Consider `CC(C)(C)c1ccc(S(=O)(=O)N2CCCc3ccccc32)cc1`, for which the inhibition of growth at 0.8 µg/mL in assay [1] amounted to 6.7%; with Plasmodium falciparum [4] it was 23.5%; with Leishmania donovani [6], 49.8%; with Trypanosoma cruzi [8], 0%. Further, the inhibition of growth at 4.8 µg/mL with Plasmodium falciparum [2] turned out to be 91.6%; in assay [3], 5.5%; in the assay with Leishmania donovani [5], 99.1%; in the assay on Trypanosoma cruzi [7], 55.6%.

For `CC1Cc2ccccc2N1S(=O)(=O)c1ccccc1[N+](=O)[O-]` (configuration not stated), the inhibition of growth at 0.8 µg/mL in assay [1] is 6.3%; in the assay on Plasmodium falciparum [4] it was 14.8%; in the assay with Leishmania donovani [6], 19.3%; in the assay with Trypanosoma cruzi [8], 0%. The inhibition of growth at 4.8 µg/mL worked out at 50.5% in the assay with Plasmodium falciparum [2], 9.6% in assay [3], 52.4% in the assay with Leishmania donovani [5] and 15.1% in the assay with Trypanosoma cruzi [7].

For the compound `CC1CCc2ccccc2N1S(=O)(=O)c1ccccc1[N+](=O)[O-]` (configuration not stated), the inhibition of growth at 0.8 µg/mL in assay [1] was found to be 0.4%; in the assay with Plasmodium falciparum [4], 8.8%; in the assay with Leishmania donovani [6], 22.4%; with Trypanosoma cruzi [8], 7.6%. The inhibition of growth at 4.8 µg/mL is 67.5% with Plasmodium falciparum [2], 2.7% in assay [3], 66.3% in the assay on Leishmania donovani [5] and 43.7% with Trypanosoma cruzi [7].

Turning to `O=S(=O)(c1ccc(C(F)(F)F)cc1)N1CCc2ccccc2C1`, the inhibition of growth at 0.8 µg/mL in assay [1] is 0.7%; in the assay with Plasmodium falciparum [4], 0.6%; in the assay on Leishmania donovani [6], 40.8%; with Trypanosoma cruzi [8] it was 0%. Moreover, the inhibition of growth at 4.8 µg/mL in the assay with Plasmodium falciparum [2] is 22.7%; in assay [3], 5.8%; with Leishmania donovani [5] it was 58.3%; in the assay on Trypanosoma cruzi [7], 27.3%.

With `O=S(=O)(c1ccc(C(F)(F)F)cc1)n1nnc2ccccc21`, the inhibition of growth at 0.8 µg/mL was determined as 3.4% in assay [1], 0% in the assay with Plasmodium falciparum [4], 21.8% in the assay on Leishmania donovani [6] and 5.5% in the assay with Trypanosoma cruzi [8]. Further, the inhibition of growth at 4.8 µg/mL in the assay with Plasmodium falciparum [2] came out at 1%; in assay [3] it was 0.4%; in the assay on Leishmania donovani [5] it was 44.8%; in the assay with Trypanosoma cruzi [7], 3%.

Take `CC(=O)c1ccc(S(=O)(=O)n2ccc3ccccc32)cc1`: the inhibition of growth at 0.8 µg/mL in assay [1] came out at 2.2%; in the assay on Plasmodium falciparum [4], 12.2%; with Leishmania donovani [6], 0%; in the assay with Trypanosoma cruzi [8], 0%. Moreover, the inhibition of growth at 4.8 µg/mL in the assay on Plasmodium falciparum [2] was 40.8%; in assay [3], 0%; in the assay on Leishmania donovani [5], 25.9%; in the assay with Trypanosoma cruzi [7], 0%.

`CC(=O)c1ccc(S(=O)(=O)N2c3ccccc3CC2C)cc1` (configuration not stated): the inhibition of growth at 0.8 µg/mL in assay [1] was determined as 0%; in the assay on Plasmodium falciparum [4] it was 7.3%; with Leishmania donovani [6] it was 0%; with Trypanosoma cruzi [8], 0%. Besides, the inhibition of growth at 4.8 µg/mL in the assay on Plasmodium falciparum [2] is 46.3%; in assay [3], 0.4%; in the assay on Leishmania donovani [5], 26.8%; in the assay on Trypanosoma cruzi [7] it was 23.7%.

In the case of `CC(=O)c1ccc(S(=O)(=O)N2c3ccccc3CCC2C)cc1` (configuration not stated), the inhibition of growth at 0.8 µg/mL in assay [1] amounted to 0%; with Plasmodium falciparum [4], 4%; in the assay with Leishmania donovani [6], 6%; in the assay with Trypanosoma cruzi [8], 0%. The inhibition of growth at 4.8 µg/mL in the assay on Plasmodium falciparum [2] was determined as 29.8%; in assay [3] it was 1.5%; with Leishmania donovani [5] it was 45.7%; in the assay on Trypanosoma cruzi [7] it was 91.9%.

Regarding `CC(C)(C)c1ccc(S(=O)(=O)N2CCc3ccccc3C2)cc1`, the inhibition of growth at 0.8 µg/mL came to 10.8% in assay [1], 11.6% in the assay with Plasmodium falciparum [4], 31.6% with Leishmania donovani [6] and 0% in the assay with Trypanosoma cruzi [8]. Further, the inhibition of growth at 4.8 µg/mL was 86% in the assay with Plasmodium falciparum [2], 8.7% in assay [3], 100% with Leishmania donovani [5] and 26.7% in the assay with Trypanosoma cruzi [7].

Turning to `O=S(=O)(c1cccc(C(F)(F)F)c1)N1CCCc2ccccc21`, the inhibition of growth at 0.8 µg/mL in assay [1] amounted to 2.4%; in the assay with Plasmodium falciparum [4], 6.6%; with Leishmania donovani [6] it was 23.7%; with Trypanosoma cruzi [8], 10.4%. For the same compound, the inhibition of growth at 4.8 µg/mL with Plasmodium falciparum [2] came to 68%; in assay [3], 2.5%; in the assay on Leishmania donovani [5], 73.1%; in the assay on Trypanosoma cruzi [7], 62.6%.
